Test results published in paper PMC6008299, “Impact of race on dose selection of molecular-targeted agents in early-phase oncology trials” (British Journal of Cancer, 2018).
Entries after “also recorded” stand apart in the source; their conditions may differ.

Tested on: patients with advanced, refractory solid tumours
Assay: Phase I dose-escalation study U101 (US): safety, DLT, MTD
Type: in vivo
Text: Studies were approved by the Institutional Review Board at the participating institutions and regulatory authorities. Written informed consent in English and Japanese was obtained from all patients prior to enrollment.
Secondary and exploratory objectives were to evaluate PK, tumour response, and PD effects. Treatment-emergent adverse events (TEAE) were graded using the Common Terminology Criteria for Adverse Events version 4.0. A dose-limiting toxicity (DLT) was defined as a grade ≥3 clinically significant toxicity, with the exceptions of grade ≥4 anaemia and prolonged grade 3 neutropenia. Both studies were open-label, phase I dose-escalation studies. In Japan, the study was conducted at a single centre, while the US study was conducted at three sites. […] In the US, an accelerated titration design was used at low doses followed by a mCRM with EWOC. Briefly, the dose was escalated based on safety data in a single patient until a grade 2 or higher toxicity was observed during cycle 1 or the DLT period (days 1–28). […] Prophylactic granulocyte colony-stimulating factor and antiemetics were not permitted during cycle 1.

CC(=O)N1CCN(c2nc3c(N4CCOCC4)nc(-c4cnc(N)nc4)nc3n2CC(F)(F)F)C[C@H]1C [DS-7423]
AST increased (TEAE), n patients (160 mg US cohort (n = 4)): 0 | Abdominal pain (TEAE), n patients (160 mg US cohort (n = 4)): 1 | Back pain (TEAE), n patients (160 mg US cohort (n = 4)): 0 | Blood creatinine increased (TEAE), n patients (160 mg US cohort (n = 4)): 2 | Constipation (TEAE), n patients (160 mg US cohort (n = 4)): 2 | Cough (TEAE), n patients (160 mg US cohort (n = 4)): 0 | Decreased appetite (TEAE), n patients (160 mg US cohort (n = 4)): 3 | Dehydration (TEAE), n patients (160 mg US cohort (n = 4)): 1 | Diarrhoea (TEAE), n patients (160 mg US cohort (n = 4)): 4 | Dry mouth (TEAE), n patients (160 mg US cohort (n = 4)): 0 | Dysgeusia (TEAE), n patients (160 mg US cohort (n = 4)): 1 | Dyspnea (TEAE), n patients (160 mg US cohort (n = 4)): 0 | Edema (TEAE), n patients (160 mg US cohort (n = 4)): 0 | Fatigue (TEAE), n patients (160 mg US cohort (n = 4)): 4 | Hyperglycaemia (TEAE), n patients (160 mg US cohort (n = 4)): 1 | Lung infection/ pneumonia (TEAE), n patients (160 mg US cohort (n = 4)): 0 | Nausea (TEAE), n patients (160 mg US cohort (n = 4)): 2 | Pyrexia (TEAE), n patients (160 mg US cohort (n = 4)): 0 | Rash (TEAE), n patients (160 mg US cohort (n = 4)): 0 | Stomatitis (TEAE), n patients (160 mg US cohort (n = 4)): 1 | Vomiting (TEAE), n patients (160 mg US cohort (n = 4)): 2 | Abdominal pain (TEAE), n patients (240 mg US cohort (n = 9)): 4 | Back pain (TEAE), n patients (240 mg US cohort (n = 9)): 3 | Blood creatinine increased (TEAE), n patients (240 mg US cohort (n = 9)): 2 | Constipation (TEAE), n patients (240 mg US cohort (n = 9)): 1 | Cough (TEAE), n patients (240 mg US cohort (n = 9)): 0 | Decreased appetite (TEAE), n patients (240 mg US cohort (n = 9)): 5 | Decreased appetite ≥G3, n patients (240 mg US cohort (n = 9)): 1 | Dehydration (TEAE), n patients (240 mg US cohort (n = 9)): 1 | Diarrhoea (TEAE), n patients (240 mg US cohort (n = 9)): 5 | Dry mouth (TEAE), n patients (240 mg US cohort (n = 9)): 3 | Dysgeusia (TEAE), n patients (240 mg US cohort (n = 9)): 2 | Dyspnea (TEAE), n patients (240 mg US cohort (n = 9)): 3 | Edema (TEAE), n patients (240 mg US cohort (n = 9)): 1 | Fatigue (TEAE), n patients (240 mg US cohort (n = 9)): 5 | Fatigue ≥G3, n patients (240 mg US cohort (n = 9)): 1 | Hyperglycaemia (TEAE), n patients (240 mg US cohort (n = 9)): 2 | Lung infection/ pneumonia (TEAE), n patients (240 mg US cohort (n = 9)): 1 | Nausea (TEAE), n patients (240 mg US cohort (n = 9)): 4 | Pyrexia (TEAE), n patients (240 mg US cohort (n = 9)): 2 | Rash (TEAE), n patients (240 mg US cohort (n = 9)): 0 | Stomatitis (TEAE), n patients (240 mg US cohort (n = 9)): 5 | Stomatitis G3, n patients (240 mg US cohort (n = 9)): 1 | Vomiting (TEAE), n patients (240 mg US cohort (n = 9)): 3 | AST increased (TEAE), n patients (240 mg US cohort (n = 9), cell marks ≥G3): 2, ≥G3 | AST increased (TEAE), n patients (320 mg US cohort (n = 8)): 0 | Abdominal pain (TEAE), n patients (320 mg US cohort (n = 8)): 0 | Back pain (TEAE), n patients (320 mg US cohort (n = 8)): 0 | Blood creatinine increased (TEAE), n patients (320 mg US cohort (n = 8)): 2 | Constipation (TEAE), n patients (320 mg US cohort (n = 8)): 1 | Cough (TEAE), n patients (320 mg US cohort (n = 8)): 1 | Decreased appetite (TEAE), n patients (320 mg US cohort (n = 8)): 5 | Dehydration (TEAE), n patients (320 mg US cohort (n = 8)): 3 | Dehydration G3, n patients (320 mg US cohort (n = 8)): 1 | Diarrhoea (TEAE), n patients (320 mg US cohort (n = 8)): 4 | Dry mouth (TEAE), n patients (320 mg US cohort (n = 8)): 2 | Dysgeusia (TEAE), n patients (320 mg US cohort (n = 8)): 5 | Dyspnea (TEAE), n patients (320 mg US cohort (n = 8)): 2 | Edema (TEAE), n patients (320 mg US cohort (n = 8)): 1 | Fatigue (TEAE), n patients (320 mg US cohort (n = 8)): 6 | Fatigue G3, n patients (320 mg US cohort (n = 8)): 1 | Hyperglycaemia (TEAE), n patients (320 mg US cohort (n = 8)): 3 | Nausea (TEAE), n patients (320 mg US cohort (n = 8)): 5 | Pyrexia (TEAE), n patients (320 mg US cohort (n = 8)): 2 | Rash (TEAE), n patients (320 mg US cohort (n = 8)): 3 | Stomatitis (TEAE), n patients (320 mg US cohort (n = 8)): 1 | Vomiting (TEAE), n patients (320 mg US cohort (n = 8)): 4 | Lung infection/ pneumonia (TEAE), n patients (320 mg US cohort (n = 8), cell marks G3): 1, G3 | AST increased (TEAE), n patients (2–28 mg US cohort (n = 10)): 3 | AST increased ≥G3, n patients (2–28 mg US cohort (n = 10)): 1 | Abdominal pain (TEAE), n patients (2–28 mg US cohort (n = 10)): 0 | Back pain (TEAE), n patients (2–28 mg US cohort (n = 10)): 5 | Blood creatinine increased (TEAE), n patients (2–28 mg US cohort (n = 10)): 0 | Constipation (TEAE), n patients (2–28 mg US cohort (n = 10)): 3 | Cough (TEAE), n patients (2–28 mg US cohort (n = 10)): 2 | Decreased appetite (TEAE), n patients (2–28 mg US cohort (n = 10)): 3 | Dehydration (TEAE), n patients (2–28 mg US cohort (n = 10)): 0 | Diarrhoea (TEAE), n patients (2–28 mg US cohort (n = 10)): 5 | Dry mouth (TEAE), n patients (2–28 mg US cohort (n = 10)): 3 | Dysgeusia (TEAE), n patients (2–28 mg US cohort (n = 10)): 0 | Dyspnea (TEAE), n patients (2–28 mg US cohort (n = 10)): 2 | Edema (TEAE), n patients (2–28 mg US cohort (n = 10)): 2 | Fatigue (TEAE), n patients (2–28 mg US cohort (n = 10)): 7 | Fatigue ≥G3, n patients (2–28 mg US cohort (n = 10)): 2 | Hyperglycaemia (TEAE), n patients (2–28 mg US cohort (n = 10)): 0 | Nausea (TEAE), n patients (2–28 mg US cohort (n = 10)): 6 | Pyrexia (TEAE), n patients (2–28 mg US cohort (n = 10)): 1 | Rash (TEAE), n patients (2–28 mg US cohort (n = 10)): 2 | Stomatitis (TEAE), n patients (2–28 mg US cohort (n = 10)): 1 | Vomiting (TEAE), n patients (2–28 mg US cohort (n = 10)): 4 | Lung infection/ pneumonia (TEAE), n patients (2–28 mg US cohort (n = 10), cell marks G3): 1, G3 | AST increased (TEAE), n patients (48–80 mg US cohort (n = 11)): 1 | Abdominal pain (TEAE), n patients (48–80 mg US cohort (n = 11)): 1 | Back pain (TEAE), n patients (48–80 mg US cohort (n = 11)): 1 | Blood creatinine increased (TEAE), n patients (48–80 mg US cohort (n = 11)): 0 | Constipation (TEAE), n patients (48–80 mg US cohort (n = 11)): 0 | Cough (TEAE), n patients (48–80 mg US cohort (n = 11)): 3 | Decreased appetite (TEAE), n patients (48–80 mg US cohort (n = 11)): 2 | Diarrhoea (TEAE), n patients (48–80 mg US cohort (n = 11)): 4 | Dry mouth (TEAE), n patients (48–80 mg US cohort (n = 11)): 3 | Dysgeusia (TEAE), n patients (48–80 mg US cohort (n = 11)): 2 | Dyspnea (TEAE), n patients (48–80 mg US cohort (n = 11)): 1 | Edema (TEAE), n patients (48–80 mg US cohort (n = 11)): 1 | Fatigue (TEAE), n patients (48–80 mg US cohort (n = 11)): 5 | Fatigue ≥G3, n patients (48–80 mg US cohort (n = 11)): 1 | Hyperglycaemia (TEAE), n patients (48–80 mg US cohort (n = 11)): 2 | Lung infection/ pneumonia (TEAE), n patients (48–80 mg US cohort (n = 11)): 0 | Nausea (TEAE), n patients (48–80 mg US cohort (n = 11)): 6 | Pyrexia (TEAE), n patients (48–80 mg US cohort (n = 11)): 2 | Rash (TEAE), n patients (48–80 mg US cohort (n = 11)): 4 | Rash G3, n patients (48–80 mg US cohort (n = 11)): 1 | Stomatitis (TEAE), n patients (48–80 mg US cohort (n = 11)): 3 | Vomiting (TEAE), n patients (48–80 mg US cohort (n = 11)): 3 | Dehydration (TEAE), n patients (48–80 mg US cohort (n = 11), cell marks G3): 1, G3 | MTD (US study): 240 mg | Grade 3 DLT (US study, 48 mg): rash | Grade 3 DLT (US study, 240 mg): stomatitis; also recorded: fatigue and dehydration | Patients with DLT (US study, of 34 DLT-evaluable patients): 4
